Measurements published in patent US6306879A, “Stable aqueous solution of 3-(1-oxo-1,3-dihydroisoindol-2-yl)-piperidine-2-6-dione” (Gruenenthal GmbH, priority 1999, dated 2001).

Key:
[1] = Spontaneous hydrolysis of EM 12 in aqueous solution; format: physicochemical
[2] = Stability testing of the EM 12 solution over 2 weeks; format: physicochemical; conditions: after 2 weeks; 200 μg/ml in 5% glucose, pH 5.5, room temperature
Excerpt: The solution was stored at room temperature. The pH of the final solution was 5.5.
Portions of the solutions were repeatedly taken as samples for analysis over a period of 2 weeks.

[3] = system: IL-12 production of LPS-activated monocytes; test: IL-12 production of LPS-activated monocytes (sandwich ELISA); format: cell-based; conditions: LPS-activated human monocytes
Procedure: (§1) In order to investigate the immunomodulatory efficacy of the solutions produced, human monocytes were isolated from peripheral blood mononuclear cells (PBMCs) and were activated with bacterial LPS (lipopolysaccharide). The concentration of TNF-α and IL-12 in the supernatant liquors from all cell cultures was determined by means of sandwich ELISAs (Biosource Europe, Fleurus, Belgium).

[4] = system: TNF-α production of LPS-activated monocytes; test: TNF-α production of LPS-activated monocytes (sandwich ELISA); format: cell-based; conditions: LPS-activated human monocytes
Procedure: as §1

[5] = system: severe aphthous stomatitis; conditions: cited from earlier work
[6] = system: cutaneous lupus erythematodes, pyoderma gangrenosum, urogenital ulcers in Bechet's syndrome, ulcerations in those infected with HIV; conditions: without resulting in general immunosuppression; cited from earlier work
[7] = Arch. Pharm. 321, 371 (1988); cited from earlier work

Row | SMILES | spontaneous hydrolysis ([1]; aqueous EM 12 solution, pH less than or equal to 5.5) | tendency to undergo spontaneous hydrolysis ([1]; aqueous solutions) | EM 12 present in solution after storage [2] | biological efficacy after storage [2] | IL-12 concentration in supernatant ([3]; EM 12 2 μg/ml) | IL-12 concentration in supernatant ([3]; EM 12 10 μg/ml) | TNF-α concentration in supernatant ([4]; EM 12 2 μg/ml) | TNF-α concentration in supernatant ([4]; EM 12 10 μg/ml) | efficacy vs classical immunosuppressants [5] | efficacy [6] | solubility in water [7]
1 | O=C1CCC(N2Cc3ccccc3C2=O)C(=O)N1 (racemic) [EM 12, 3-(1-oxo-1,3-dihydroisoindol-2-yl)-piperidine-2,6-dione] | does not occur | tendency of EM 12 to undergo spontaneous hydrolysis | still present | retained its full biological efficacy | 528 pg/mL | 464 pg/mL | 9915 pg/mL | 9548 pg/mL |  |  | 
2 | O=C1CCC(N2C(=O)c3ccccc3C2=O)C(=O)N1 (centres unmarked) [Thalidomide, 2-(2,6-dioxo-piperidin-3-yl)-isoindole-1,3-dione] |  |  |  |  |  |  |  |  | superior | good efficacy | low
